{"source": "patent EP2201949A1", "about": "(World Trade Import-Export, WTIE A.G., priority 2007, dated 2009)", "key": {"gout arthritis": {"tested_on": "gout arthritis", "format": "in vivo, female Wistar rats", "conditions": "for Global anti-inflammatory and analgesic activity expressed in CT AUC: through 5 hours of assessment; for effect of used dose on walking capability / relaxation of the animals: rat, in vivo", "source_text": "PIFIR experimental model is a preclinical model wherein gout arthritis is possible to be determined in a rodent and the anti-inflammatory and analgesic efficacy of several drugs in animals with this alteration is compared. This experimental model has some important advantages regarding other preclinical methodologies: a) an alteration which clinically affects to humans is established in the rodent: gout type arthritis; b) temporary course of anti-inflammatory and analgesic effect may be determined along […] in the same experimental subject, without producing rodent conditioning factor or learning, being this a significant disadvantage in other experimental models; c) less test drug is consumed compared with other experimental models; d) anti-inflammatory and analgesic effect assessment is performed by computer and not depending on sometimes subjective observations.\nExperiments were performed by using female Wistar rats having a weight of about 180 to 200 g. Animals were kept in a room with alternate light/darkness cycles. Food was withdrawn from rats twelve hours before experimentation, with water ad-libitum. All experiments were carried out during light time, the animals being used only once.\nAnimals were anesthesized in a glass desiccator saturated with […]. Gout arthritis was induced by applying a 0.05 ml intra-articular uric acid injection suspended in mineral oil in the right anterior limb, exactly on the femoral-tibio-rotular joint. A 1 ml glass syringe was used for intra-articular injection with a No. 22 4 mm long needle. An electrode was fixed immediately later in every anterior leg between the plantar calluses. Rats were left to recover from anesthesia and they were enclosed in a 30 cm diameter stainless steel rotary cylinder. Cylinder was rotated at 4 rpm, forcing to the rats to walk during 2 min every half hour, during 5 hours after total dysfunction.\nContact time was the measured variable at every anterior leg from the rats in the cylinder. When electrode is in contact with the cylinder a circuit is closed and the contact time ratio between injured to uninjured legs was registered in a computer.\nTemporary courses for every treatment were determined during 5 continuous hours, using a \"n\" of 6 rats per treatment."}, "[1]": {"conditions": "cited from earlier work"}, "[2]": {"conditions": "each compound 177.8 mg/kg, alone or combined"}, "[3]": {"conditions": "after being orally administered"}}, "data": [{"smiles": "C[C@H]1C[C@H]2[C@@H]3CCC4=CC(=O)C=C[C@]4(C)[C@@]3(F)[C@@H](O)C[C@]2(C)[C@@]1(O)C(=O)CO", "note": "[Betamethasone]", "values": [{"measurement": "Global anti-inflammatory and analgesic activity expressed in CT AUC", "setting": "gout arthritis; [2]", "value": "31.6 ± 10.8", "unit": "ua"}, {"measurement": "time of maximum effect after delivery", "setting": "gout arthritis; each compound 177.8 mg/kg, single dose, alone or combined, CT over 5 hours", "value": 4.5, "unit": "h"}, {"measurement": "Maximum effect (anti-inflammatory and analgesic effect)", "setting": "gout arthritis; each compound 177.8 mg/kg, single dose, alone or combined, temporary course (CT) over 5 hours, n = 6 rats", "value": "24.0 ± 11.9", "unit": "%"}, {"measurement": "effect of used dose on walking capability / relaxation of the animals", "setting": "gout arthritis", "value": "did not affect the walking rat capability"}]}, {"smiles": "COc1ccccc1OCC(O)COC(N)=O", "note": "(stereo not drawn) [Methocarbamol]", "values": [{"measurement": "Global anti-inflammatory and analgesic activity expressed in CT AUC", "setting": "gout arthritis; [2]", "value": "48.8 ± 21.0", "unit": "ua"}, {"measurement": "effect of used dose on walking capability / relaxation of the animals", "setting": "gout arthritis", "value": "slight relaxation effect"}, {"measurement": "beginning of pharmacological action", "setting": "[1]; [3]", "value": "≤ 30", "unit": "minutes"}, {"measurement": "total therapeutic action duration", "setting": "[1]; [3]", "value": "about 24 hours"}, {"measurement": "half-life", "setting": "[1]; in vivo", "value": "about 14 hours"}]}]}
